Measurements published in US10548982B2, “Reversible covalent linkage of functional molecules” (priority 2009, dated 2020).

System: GIRK currents
Assay: patch-clamp controls: inhibition of the activated GIRK currents
Assay type: cell-based, human
Protocol: HEK 293 cells expressing HKIR3.1/3.2 channel and human somatostatin receptor 2 were treated with these compounds, and whole cell patch-clamp current recordings taken. […] Cell Culture
Whole cell patch-clamp current recordings were performed with an Axopatch 200B amplifier (Axon Instruments) using fire-polished pipettes with a resistance of 3-4 MS pulled from filamented borosilicated glass capillaries (Harvard Apparatus, 1.5 mm OD×1.17 mm ID). Data was acquired and analysed via a Digidata 1322A interface (Axon Instruments) and pCLAMP software (version 8.1, Axon Instruments). A fast perfusion system was used to apply somatostatin and analogues (Rapid Solution Changer, RSC-160, Bio-Logic France). Cells were clamped at −60 mV. The extracellular solution was (mM): NaCl 80, KCl 60, CaCl2 2, MgCl2 1, HEPES 10, NaH2PO4 0.33, glucose 10, pH 7.4; while the intracellular solution was (mM): K gluconate 110, KCl 20, NaCl 10, MgCl2 1, MgATP 2, EGTA 2 GTP 0.3, pH 7.4. After agonist application, current activated with a delay “lag” followed by a rapid rise to peak amplitude “time to peak”. After removal of the agonist, the current decays back to baseline. For each cell it was assessed if flow artifacts resulting from the pressure of drug application were present. This was done by applying bath solution from one of the sewer pipes at the beginning of the recordings. […]

Substance	GIRK currents after treatment of cells with Pertussis toxin (control) (pertussis toxin 100 ng/ml, cells incubated overnight)	GIRK currents after GIRK inhibitor Tertiapin Q (control) (Tertiapin 100 nM)
Pertussis toxin	currents were largely inhibited	
Tertiapin Q		currents were largely inhibited
